In brackets after ≈: the same amount, converted by molar mass.
How the values were obtained:
Assay in all cases: Agar dilution MIC
[1] = system: Actinomyces odontolyticus; format: cell-based; details: Schaalia odontolytica, 10 isolates
[2] = system: Actinomyces israelii; format: cell-based; details: Actinomyces israelii, read-out: Minimal Inhibitory Concentration 50% (MIC50); 6 isolates
[3] = system: Anaerobiospirillum thomasii; format: cell-based; details: 13 isolates
[4] = system: Anaerobiospirillum succiniciproducens; format: cell-based; details: 3 isolates
[5] = system: Bacteroides gracilis; format: cell-based, Bacteroides gracilis (Campylobacter gracilis); details: 11 isolates
[6] = system: Bacteroides tectum; format: cell-based; details: 22 isolates
[7] = system: Bacteroides ureolyticus; format: cell-based; details: 17 isolates
[8] = system: Bilophila wadsworthia; format: cell-based; details: 16 isolates, agar supplemented with pyruvate
[9] = system: Clostridium clostridioforme; format: cell-based; details: Clostridium, 11 isolates
[10] = system: Clostridium dfficile; format: cell-based, Clostridium difficile; details: Clostridium
[11] = system: Clostridium inocuum; format: cell-based, Clostridium innocuum; details: Clostridium, 11 isolates
[12] = system: Clostridium ramosum; format: cell-based; details: Thomasclavelia ramosa, 10 isolates
[13] = system: Fusobacterium spp group 1; format: cell-based; details: Fusobacterium, 19 isolates
[14] = system: Fusobacterium spp. group 2; format: cell-based, Fusobacterium mortiferum, necrogenes, ulcerans; details: Fusobacterium, 12 isolates
[15] = system: Fusobacterium russii; format: cell-based; details: Fusobacterium russii
[16] = system: Fusobacterium varium; format: cell-based; details: Fusobacterium varium, 17 isolates
[17] = system: Peptostreptococcus asaccharolyticus; format: cell-based; details: Peptoniphilus asaccharolyticus, 11 isolates
[18] = system: Peptostreptococcus magnus; format: cell-based; details: Finegoldia magna, 13 isolates
[19] = system: Peptostreptococcus micros; format: cell-based; details: 12 isolates
[20] = system: Peptostreptococcus prevotii; format: cell-based; details: Anaerococcus prevotii, read-out: Minimal Inhibitory Concentration 50% (MIC50); 9 isolates
[21] = system: Porphyromonas asaccharolyticus; format: cell-based, Porphyromonas asaccharolytica; details: Porphyromonas, 11 isolates
[22] = system: Porphyromonas canoris; format: cell-based; details: 10 isolates
[23] = system: Porphyromonas gingivalis; format: cell-based; details: 13 isolates
[24] = system: Porphyromonas macaccae; format: cell-based; details: 13 isolates
[25] = system: Porphyromonas spp.; format: cell-based, Porphyromonas cangingivalis, cansulci, circumdentaria, levii; details: 11 isolates
[26] = system: Prevotella bivia; format: cell-based; details: Prevotella bivia, 21 isolates
[27] = system: Prevotella buccae-oris group; format: cell-based; details: 22 isolates
[28] = system: Prevotella heparinolytica; format: cell-based; details: 16 isolates
[29] = system: Prevotella intermedia; format: cell-based; details: Prevotella intermedia, 11 isolates
[30] = system: Prevotella melaninogenica; format: cell-based; details: 12 isolates
[31] = system: Prevotella denticola/loeschii group; format: cell-based; details: 6 isolates
[32] = system: Veillonella spp.; format: cell-based; details: Veillonella, 24 isolates
[33] = read-out: Minimal Inhibitory Concentration 90% (MIC90)
[34] = read-out: Minimal Inhibitory Concentration 50% (MIC50)
[35] = Porphyromonas, read-out: Minimal Inhibitory Concentration 50% (MIC50)
[36] = Porphyromonas, read-out: Minimal Inhibitory Concentration 90% (MIC90)

## CC[C@H]1OC(=O)[C@H](C)[C@@H](O[C@H]2C[C@@](C)(OC)[C@@H](O)[C@H](C)O2)[C@H](C)[C@@H](O[C@@H]2O[C@H](C)C[C@H](N(C)C)[C@H]2O)[C@](C)(OC)C[C@@H](C)C(=O)[C@H](C)[C@@H](O)[C@]1(C)O [Clarithromycin]
[1]; [33]
  MIC90: ≤ 0.015 µg/mL
[1]; [34]
  MIC50: ≤ 0.015 µg/mL
[2]
  MIC50: ≤ 0.015 µg/mL
[3]
  Minimal Inhibitory Concentration Range: 2 to 32 µg/mL
[3]; Anaerobiospirillum thomasii, read-out: Minimal Inhibitory Concentration 50% (MIC50)
  MIC50: 4 µg/mL (≈ 5.35 µM)
[3]; Anaerobiospirillum thomasii, read-out: Minimal Inhibitory Concentration 90% (MIC90)
  MIC90: 16 µg/mL (≈ 21.4 µM)
[4]
  Minimal Inhibitory Concentration Range: 8 to 32 µg/mL
[4]; Anaerobiospirillum succiniciproducens, read-out: Minimal Inhibitory Concentration 50% (MIC50)
  MIC50: 32 µg/mL (≈ 42.8 µM)
[5]
  Minimal Inhibitory Concentration Range: 0.25 to 2 µg/mL
[5]; Campylobacter gracilis, read-out: Minimal Inhibitory Concentration 90% (MIC90)
  MIC90: 1 µg/mL (≈ 1.34 µM)
[5]; Campylobacter gracilis, read-out: Minimal Inhibitory Concentration 50% (MIC50)
  MIC50: 1 µg/mL (≈ 1.34 µM)
[6]
  Minimal Inhibitory Concentration Range: 0.125 µg/mL
[6]; Bacteroides pyogenes, read-out: Minimal Inhibitory Concentration 90% (MIC90)
  MIC90: 0.125 µg/mL (≈ 0.167 µM)
[6]; Bacteroides pyogenes, read-out: Minimal Inhibitory Concentration 50% (MIC50)
  MIC50: 0.125 µg/mL (≈ 0.167 µM)
[7]
  Minimal Inhibitory Concentration Range: 0.125 to 4 µg/mL
[7]; Campylobacter ureolyticus, read-out: Minimal Inhibitory Concentration 90% (MIC90)
  MIC90: 2 µg/mL (≈ 2.67 µM)
[7]; Campylobacter ureolyticus, read-out: Minimal Inhibitory Concentration 50% (MIC50)
  MIC50: 0.5 µg/mL (≈ 0.668 µM)
[8]
  Minimal Inhibitory Concentration Range: 4 to 32 µg/mL
[8]; Bilophila wadsworthia, read-out: Minimal Inhibitory Concentration 90% (MIC90)
  MIC90: 32 µg/mL (≈ 42.8 µM)
[8]; Bilophila wadsworthia, read-out: Minimal Inhibitory Concentration 50% (MIC50)
  MIC50: 16 µg/mL (≈ 21.4 µM)
[9]; [33]
  MIC90: > 32 µg/mL
[9]; [34]
  MIC50: 4 µg/mL (≈ 5.35 µM)
[10]; [34]
  MIC50: 0.5 µg/mL (≈ 0.668 µM)
[10]; read-out: Minimal Inhibitory Concentration 90% (MIC90), 14 isolates
  MIC90: > 32 µg/mL
[11]; [33]
  MIC90: > 32 µg/mL
[11]; [34]
  MIC50: > 32 µg/mL
[12]; [34]
  MIC50: 0.5 µg/mL (≈ 0.668 µM)
[12]; [33]
  MIC90: > 32 µg/mL
[13]; GROUP1, read-out: Minimal Inhibitory Concentration 50% (MIC50)
  MIC50: 8 µg/mL (≈ 10.7 µM)
[13]; GROUP1, read-out: Minimal Inhibitory Concentration 90% (MIC90)
  MIC90: 32 µg/mL (≈ 42.8 µM)
[14]; [34]
  MIC50: > 32 µg/mL
[14]; [33]
  MIC90: > 32 µg/mL
[15]; [34]
  MIC50: 4 µg/mL (≈ 5.35 µM)
[15]; [33]
  MIC90: > 32 µg/mL
[16]; [34]
  MIC50: > 32 µg/mL
[16]; [33]
  MIC90: > 32 µg/mL
[17]; [34]
  MIC50: 2 µg/mL (≈ 2.67 µM)
[17]; [33]
  MIC90: > 32 µg/mL
[18]; [34]
  MIC50: 2 µg/mL (≈ 2.67 µM)
[18]; [33]
  MIC90: > 32 µg/mL
[19]
  Minimal Inhibitory Concentration Range: 0.6 µg/mL
[19]; Parvimonas micra, read-out: Minimal Inhibitory Concentration 50% (MIC50)
  MIC50: 0.5 µg/mL (≈ 0.668 µM)
[19]; Parvimonas micra, read-out: Minimal Inhibitory Concentration 90% (MIC90)
  MIC90: 0.5 µg/mL (≈ 0.668 µM)
[20]
  MIC50: > 32 µg/mL
[21]; [34]
  MIC50: 0.06 µg/mL (≈ 0.0802 µM)
[21]; [33]
  MIC90: > 32 µg/mL
[22]
  Minimal Inhibitory Concentration Range: 0.06 to 0.125 µg/mL
[22]; Porphyromonas canoris, read-out: Minimal Inhibitory Concentration 50% (MIC50)
  MIC50: 0.06 µg/mL (≈ 0.0802 µM)
[22]; Porphyromonas canoris, read-out: Minimal Inhibitory Concentration 90% (MIC90)
  MIC90: 0.125 µg/mL (≈ 0.167 µM)
[23]
  Minimal Inhibitory Concentration Range: 0.06 to 0.125 µg/mL
[23]; Porphyromonas gingivalis, read-out: Minimal Inhibitory Concentration 50% (MIC50)
  MIC50: 0.06 µg/mL (≈ 0.0802 µM)
[23]; Porphyromonas gingivalis, read-out: Minimal Inhibitory Concentration 90% (MIC90)
  MIC90: 0.125 µg/mL (≈ 0.167 µM)
[24]
  Minimal Inhibitory Concentration Range: 0.06 to 0.125 µg/mL
[24]; [35]
  MIC50: 0.125 µg/mL (≈ 0.167 µM)
[24]; [36]
  MIC90: 0.125 µg/mL (≈ 0.167 µM)
[25]
  Minimal Inhibitory Concentration Range: 0.06 to 0.125 µg/mL
[25]; [35]
  MIC50: 0.06 µg/mL (≈ 0.0802 µM)
[25]; [36]
  MIC90: 0.125 µg/mL (≈ 0.167 µM)
[26]; [33]
  MIC90: 0.25 µg/mL (≈ 0.334 µM)
[26]; [34]
  MIC50: 0.125 µg/mL (≈ 0.167 µM)
[27]
  Minimal Inhibitory Concentration Range: 0.06 to 1 µg/mL
[27]; Prevotella, read-out: Minimal Inhibitory Concentration 90% (MIC90)
  MIC90: 0.25 µg/mL (≈ 0.334 µM)
[27]; Prevotella, read-out: Minimal Inhibitory Concentration 50% (MIC50)
  MIC50: 0.125 µg/mL (≈ 0.167 µM)
[28]
  Minimal Inhibitory Concentration Range: 0.06 to 0.125 µg/mL
[28]; Prevotella heparinolytica, read-out: Minimal Inhibitory Concentration 90% (MIC90)
  MIC90: 0.125 µg/mL (≈ 0.167 µM)
[28]; Prevotella heparinolytica, read-out: Minimal Inhibitory Concentration 50% (MIC50)
  MIC50: 0.125 µg/mL (≈ 0.167 µM)
[29]; [33]
  MIC90: 0.125 µg/mL (≈ 0.167 µM)
[29]; [34]
  MIC50: ≤ 0.015 µg/mL
[30]
  Minimal Inhibitory Concentration Range: 0.06 to 4 µg/mL
[30]; Prevotella melaninogenica, read-out: Minimal Inhibitory Concentration 90% (MIC90)
  MIC90: 1 µg/mL (≈ 1.34 µM)
[30]; Prevotella melaninogenica, read-out: Minimal Inhibitory Concentration 50% (MIC50)
  MIC50: 0.125 µg/mL (≈ 0.167 µM)
[31]
  Minimal Inhibitory Concentration Range: 0.03 to 2 µg/mL
[31]; Prevotella denticola, read-out: Minimal Inhibitory Concentration 50% (MIC50)
  MIC50: 0.06 µg/mL (≈ 0.0802 µM)
[32]; [33]
  MIC90: > 32 µg/mL
[32]; [34]
  MIC50: 16 µg/mL (≈ 21.4 µM)
